# According to ChEMBL document CHEMBL5506059, “Cyanomethylquinolones as a New Class of Potential Multitargeting Broad-Spectrum Antibacterial Agents” (J Med Chem, 2024):
# The source made the active and inactive calls. The rule behind the calls is not given here.
# Key:
# Staphylococcus aureus [1] = assay: Antibacterial activity against Staphylococcus aureus ATCC 29213 assessed as inhibition of bacterial growth incubated for 24 hrs; assay type: functional
# Staphylococcus aureus [2] = assay: Antibacterial activity against methicillin resistant Staphylococcus aureus clinical isolate assessed as inhibition of bacterial growth incubated for 24 hrs; assay type: functional
# Staphylococcus aureus [3] = assay: Antibacterial activity against Staphylococcus aureus ATCC 12600 assessed as inhibition of bacterial growth incubated for 24 hrs; assay type: functional
# Streptococcus pyogenes = assay: Antibacterial activity against Streptococcus pyogenes ATCC 19615 assessed as inhibition of bacterial growth incubated for 24 hrs; assay type: functional
# Enterococcus faecium = assay: Antibacterial activity against Enterococcus faecium ATCC 19434 assessed as inhibition of bacterial growth incubated for 24 hrs; assay type: functional
# Staphylococcus aureus [4] = assay: Antibacterial activity against Staphylococcus aureus ATCC 6538 assessed as inhibition of bacterial growth incubated for 24 hrs; assay type: functional
# Enterococcus faecalis [5] = assay: Antibacterial activity against vancomycin-resistant Enterococcus faecalis clinical isolate p1-2007225053 assessed as inhibition of bacterial growth incubated for 24 hrs; assay type: functional
# Enterococcus faecalis [6] = assay: Antibacterial activity against vancomycin-resistant Enterococcus faecalis clinical isolate p1-2007226001 assessed as inhibition of bacterial growth incubated for 24 hrs; assay type: functional
# Staphylococcus aureus [7] = assay: Antibacterial activity against Staphylococcus aureus CMCC(B)26003 assessed as inhibition of bacterial growth incubated for 24 hrs; assay type: functional
# Pseudomonas aeruginosa [8] = assay: Antibacterial activity against Pseudomonas aeruginosa ATCC 27853 assessed as inhibition of bacterial growth incubated for 24 hrs; assay type: functional
# Escherichia coli [9] = assay: Antibacterial activity against Escherichia coli ATCC 25922 assessed as inhibition of bacterial growth incubated for 24 hrs; assay type: functional
# Pseudomonas aeruginosa [10] = assay: Antibacterial activity against Pseudomonas aeruginosa clinical isolate assessed as inhibition of bacterial growth incubated for 24 hrs; assay type: functional
# [11] = test system: Staphylococcus epidermidis; assay: Antibacterial activity against Staphylococcus epidermidis ATCC 12228 assessed as inhibition of bacterial growth incubated for 24 hrs; assay type: functional
# Staphylococcus aureus [12] = assay: Antibacterial activity against Staphylococcus aureus ATCC 25923 assessed as inhibition of bacterial growth incubated for 24 hrs; assay type: functional
# Klebsiella pneumoniae = assay: Antibacterial activity against Klebsiella pneumoniae clinical isolate assessed as inhibition of bacterial growth incubated for 24 hrs; assay type: functional
# [13] = Hemolytic activity in human Red blood cells at 256 ug/ml measured after 1.5 hrs by absorbance based assay relative to control; assay type: toxicity, cell-based, Erythrocyte; settings: red blood cells (erythrocytes), at 256 µg/mL, read-out: Activity
# Acinetobacter baumannii = assay: Antibacterial activity against Acinetobacter baumannii clinical isolate assessed as inhibition of bacterial growth incubated for 24 hrs; assay type: functional
# Erythrocyte = assay: Hemolytic activity in human Red blood cells assessed as concentration required for 5% hemolysis measured after 1.5 hrs by absorbance based assay; assay type: toxicity, cell-based
# Staphylococcus aureus [14] = assay: Antibacterial activity against Staphylococcus aureus clinical isolate assessed as inhibition of bacterial growth incubated for 24 hrs; assay type: functional
# Enterococcus faecalis [15] = assay: Antibacterial activity against Enterococcus faecalis clinical isolate assessed as inhibition of bacterial growth incubated for 24 hrs; assay type: functional
# Streptococcus pneumoniae = assay: Antibacterial activity against Streptococcus pneumoniae ATCC 6305 assessed as inhibition of bacterial growth incubated for 24 hrs; assay type: functional
# Escherichia coli [16] = assay: Antibacterial activity against Escherichia coli clinical isolate assessed as inhibition of bacterial growth incubated for 24 hrs; assay type: functional
# Staphylococcus aureus [17] = assay: Antibacterial activity against methicillin-resistant Staphylococcus aureus ATCC 43300 assessed as inhibition of bacterial growth incubated for 24 hrs; assay type: functional
# Staphylococcus aureus [18] = assay: Antibacterial activity against Staphylococcus aureus CMCC(B)26001 assessed as inhibition of bacterial growth incubated for 24 hrs; assay type: functional
# Pseudomonas aeruginosa [19] = assay: Antibacterial activity against Pseudomonas aeruginosa assessed as reduction in metabolic activity by measuring reduction in fluorescence intensity at 0.5 to 2 times MIC incubated for 6 hrs by alamar blue assay; assay type: functional, organism-based
# Cell membrane [20] = assay: Induction of cell membrane damage in Pseudomonas aeruginosa assessed as increase in nucleic acid leakage at 0 to 2 ug/ml incubated for 12 hrs by optical density based microplate reader analysis; assay type: cell membranes; settings: dose 0-2 µg/ml
# Pseudomonas aeruginosa [21] = assay: Resistance development in Pseudomonas aeruginosa assessed as increase in MIC measured after 20 days; assay type: functional, organism-based; settings: time 20.0 day
# Pseudomonas aeruginosa [22] = assay: Induction of intracellular ROS generation in Pseudomonas aeruginosa assessed as increase in fluorescence intensity at 2 ug/ml incubated for 6 hrs in presence of N-acetyl-L-cysteine by DCFH-DA dye based fluorescence analysis; assay type: functional, organism-based; settings: dose 2.0 µg/ml
# Cell membrane [23] = assay: Induction of cell membrane depolarization in methicillin-resistant Staphylococcus aureus assessed as increase in fluorescence intensity at 1 ug/ml measured for 30 mins by DiSC35 dye based fluorescence analysis; assay type: cell membranes; settings: dose 1.0 µg/ml
# Staphylococcus aureus [24] = assay: Antibacterial activity against methicillin resistant Staphylococcus aureus assessed as reduction in metabolic activity by measuring reduction in fluorescence intensity at 0.5 to 2 times MIC incubated for 6 hrs by alamar blue assay; assay type: functional, organism-based
# Cell membrane [25] = assay: Induction of cell membrane permeability in methicillin-resistant Staphylococcus aureus assessed as increase in fluorescence intensity at 1 to 2 ug/ml incubated for 6 hrs by PI staining based fluorescence analysis; assay type: cell membranes; settings: dose 1-2 µg/ml
# Staphylococcus aureus [26] = assay: Antibacterial activity against methicillin resistant Staphylococcus aureus clinical isolate assessed as inhibition of bacterial growth incubated under dark condition and measured upto 5 hrs; assay type: functional, organism-based
# Cell membrane [27] = assay: Induction of cell membrane depolarization in Pseudomonas aeruginosa assessed as increase in fluorescence intensity at 1 ug/ml measured for 30 mins by DiSC35 dye based fluorescence analysis; assay type: cell membranes; settings: dose 1.0 µg/ml
# Staphylococcus aureus [28] = assay: Antibiofilm activity in methicillin resistant Staphylococcus aureus assessed as biofilm eradication measured after 24 hrs by crystal violet staining based analysis; assay type: functional, organism-based; settings: dose 1-2 µg/ml
# Staphylococcus aureus [29] = assay: Resistance development in methicillin resistant Staphylococcus aureus assessed as increase in MIC measured after 20 days; assay type: functional, organism-based; settings: time 20.0 day
# Cell membrane [30] = assay: Induction of cell membrane permeability in Pseudomonas aeruginosa assessed as increase in fluorescence intensity at 1 to 2 ug/ml incubated for 6 hrs by PI staining based fluorescence analysis; assay type: cell membranes; settings: dose 1-2 µg/ml
# Pseudomonas aeruginosa [31] = assay: Induction of intracellular ROS generation in Pseudomonas aeruginosa assessed as increase in fluorescence intensity at 2 ug/ml incubated for 6 hrs by DCFH-DA dye based fluorescence analysis; assay type: functional, organism-based; settings: dose 2.0 µg/ml
# Pseudomonas aeruginosa [32] = assay: Antibiofilm activity in Pseudomonas aeruginosa assessed as biofilm eradication measured after 24 hrs by crystal violet staining based analysis; assay type: functional, organism-based; settings: dose 1-2 µg/ml
# Cell membrane [33] = assay: Induction of cell membrane damage in methicillin-resistant Staphylococcus aureus assessed as increase in nucleic acid leakage at 0 to 2 ug/ml incubated for 12 hrs by optical density based microplate reader analysis; assay type: cell membranes; settings: dose 0-2 µg/ml
SMILES,MIC (Staphylococcus aureus [1]) [µg/mL],MIC (Staphylococcus aureus [2]) [µg/mL],MIC (Staphylococcus aureus [3]) [µg/mL],MIC (Streptococcus pyogenes) [µg/mL],MIC (Enterococcus faecium) [µg/mL],MIC (Staphylococcus aureus [4]) [µg/mL],MIC (Enterococcus faecalis [5]) [µg/mL],MIC (Enterococcus faecalis [6]) [µg/mL],MIC (Staphylococcus aureus [7]) [µg/mL],MIC (Pseudomonas aeruginosa [8]) [µg/mL],MIC (Escherichia coli [9]) [µg/mL],MIC (Pseudomonas aeruginosa [10]) [µg/mL],MIC [11] [µg/mL],MIC (Staphylococcus aureus [12]) [µg/mL],MIC (Klebsiella pneumoniae) [µg/mL],"hemolysis at 1.5 h, 256 ug/ml [13] [%]",MIC (Acinetobacter baumannii) [µg/mL],HC5 (Erythrocyte) [µg/mL],MIC (Staphylococcus aureus [14]) [µg/mL],MIC (Enterococcus faecalis [15]) [µg/mL],further results
CCn1cc(C(=O)O)c(=O)c2cc(F)c(CC#N)cc21,4,1,64,1,256,2,128,128,4,0.25,2,0.5,256,0.25,2,< 1,0.5,> 10000,1,32,MIC (Streptococcus pneumoniae): 32 µg/mL; MIC (Escherichia coli [16]): 4 µg/mL; MIC (Staphylococcus aureus [17]): 128 µg/mL; MIC (Staphylococcus aureus [18]): 4 µg/mL
O=C(O)Cc1cc2c(cc1F)c(=O)c(C(=O)O)cn2C1CC1,2,0.5,1,1,8,0.25,2,8,0.125,2,0.5,0.5,2,32,8,< 1,0.5,> 10000,4,4,Activity (Pseudomonas aeruginosa [19]): Active; Activity (Cell membrane [20]): Active; Activity (Pseudomonas aeruginosa [21]): inactive; Activity (Pseudomonas aeruginosa [22]): inactive; Activity (Cell membrane [23]): Active; Activity (Staphylococcus aureus [24]): Active; Activity (Cell membrane [25]): Active; Activity (Staphylococcus aureus [26]): Dose-Dependent Effect; Activity (Cell membrane [27]): Active; Activity (Staphylococcus aureus [28]): Dose-Dependent Effect; Activity (Staphylococcus aureus [29]): inactive; Activity (Cell membrane [30]): Active; Activity (Pseudomonas aeruginosa [31]): Active; Activity (Pseudomonas aeruginosa [32]): Dose-Dependent Effect; Activity (Cell membrane [33]): Active; MIC (Streptococcus pneumoniae): 4 µg/mL; MIC (Escherichia coli [16]): 1 µg/mL; MIC (Staphylococcus aureus [17]): 2 µg/mL; MIC (Staphylococcus aureus [18]): 0.125 µg/mL
